We go through one molecule from ChEMBL document CHEMBL5046244, “Targeted Covalent Inhibition of Small CTD Phosphatase 1 to Promote the Degradation of the REST Transcription Factor in Human Cells” (J Med Chem, 2022).

SMILES strings stand for the structures. Active and inactive are the calls of the source. The calls are words filed in the database; no cut-off is given here.

For experiment [1], the system named is HEK293. In words: Downregulation of REST protein expression in HEK293 cells at 10 uM incubated for 48 to 72 hrs by immunoblot analysis. Format: functional, cell-based. Conditions: Homo sapiens, time lower […], time upper 72.0 hrs. (A western blot detects proteins with antibodies after separation by electrophoresis.)
Experiment [2] is described as follows: Downregulation of REST protein expression in HEK293 cells at 10 uM incubated for 6 hrs by immunoblot analysis relative to control. Format: functional, Homo sapiens.
The species entered for experiment [3] is Homo sapiens. The experiment can be described thus: Covalent inhibition of human SCP1 C148A mutant using pNPP as substrate preincubated for 0.5 to 8 hrs followed by substrate addition by absorbance based analysis. The conditions noted are these: time 0.5-8 hrs.
The species entered for experiment [4] is Homo sapiens. The experiment can be described thus: Covalent inhibition of human SCP1 C92S mutant using pNPP as substrate preincubated for 0.5 to 8 hrs followed by substrate addition by absorbance based analysis. The conditions noted are these: time 0.5-8 hrs.
Experiment [5] is filed under the species Homo sapiens. The experiment can be described thus: Covalent binding affinity to human SCP1 C181A mutant assessed as covalent adduct formation incubated for overnight by MALDI-TOF analysis.
The species named for experiment [6] is Homo sapiens. In words: Covalent binding affinity to human SCP1 C92 mutant assessed as covalent adduct formation incubated for overnight by MALDI-TOF analysis.
Experiment [7] has as its target Dual specificity protein phosphatase 3 (Homo sapiens) (UniProt P51452). The experiment can be described thus: Inhibition of VHR (unknown origin) at 25 to 30 uM. Conditions: dose 25-30 µM.
Experiment [8] deals with T1, Tyrosine-protein phosphatase non-receptor type 22 (Homo sapiens) (UniProt Q9Y2R2).
T1 sequence (whole entry): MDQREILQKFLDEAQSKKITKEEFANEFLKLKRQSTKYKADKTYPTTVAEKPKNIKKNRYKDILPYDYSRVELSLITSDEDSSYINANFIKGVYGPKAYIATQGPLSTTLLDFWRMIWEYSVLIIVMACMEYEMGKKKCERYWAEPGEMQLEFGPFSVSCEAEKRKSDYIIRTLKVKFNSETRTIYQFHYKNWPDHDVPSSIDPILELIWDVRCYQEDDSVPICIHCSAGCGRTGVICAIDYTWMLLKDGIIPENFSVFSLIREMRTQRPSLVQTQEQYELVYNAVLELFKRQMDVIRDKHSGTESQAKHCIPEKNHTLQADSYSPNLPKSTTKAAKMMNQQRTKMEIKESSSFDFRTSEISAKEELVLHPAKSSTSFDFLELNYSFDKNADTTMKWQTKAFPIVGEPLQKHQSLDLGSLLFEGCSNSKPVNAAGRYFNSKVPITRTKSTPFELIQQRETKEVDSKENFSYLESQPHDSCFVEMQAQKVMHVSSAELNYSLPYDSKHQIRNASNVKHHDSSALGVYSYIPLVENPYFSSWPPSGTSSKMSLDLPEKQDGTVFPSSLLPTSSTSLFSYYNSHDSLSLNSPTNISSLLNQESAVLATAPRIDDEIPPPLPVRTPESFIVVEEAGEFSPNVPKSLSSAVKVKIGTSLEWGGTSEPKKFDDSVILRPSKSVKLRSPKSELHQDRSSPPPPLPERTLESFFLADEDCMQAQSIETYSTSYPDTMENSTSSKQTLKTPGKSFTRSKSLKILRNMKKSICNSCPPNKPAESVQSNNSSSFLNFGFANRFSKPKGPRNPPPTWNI
In words: Inhibition of LYP (unknown origin) at 25 to 30 uM. The conditions noted are these: dose 25-30 µM.

Experiment [9] has as its system Schizosaccharomyces pombe. The experiment can be described thus: Time dependent inhibition of Schizosaccharomyces pombe wild type FCP1 (148 to 641 residues) using pNPP as substrate measured upto 18 hrs by absorbance based assay. The conditions noted are these: time hrs <=18.
The test system of experiment [10] is Schizosaccharomyces pombe. In words: Inhibition of Schizosaccharomyces pombe wild type FCP1 (148 to 641 residues) assessed as reduction in enzymatic activity using pNPP as substrate at 100 uM measured up to 18 hrs by absorbance based assay relative to control. The conditions noted are these: time hrs <=18.
Experiment [11] in a line: Downregulation of REST protein expression in HEK293 cells incubated for 3 days with media replenishment for every 24 hrs by immunoblot analysis. In kind it is functional, cell-based. Conditions: Homo sapiens.
The nature of experiment [12]: Downregulation of REST protein expression in HEK293 cells at 3 uM incubated for 3 days with media replenishment for every 24 hrs by immunoblot analysis relative to control. In kind it is functional, Homo sapiens. Conditions: time 3 day.
The nature of experiment [13]: Downregulation of REST protein expression in HEK293 cells at 5 uM incubated for 3 days with media replenishment for every 24 hrs by immunoblot analysis relative to control. The conditions noted are these: time 3 day. Format: functional, Homo sapiens.
A short description of experiment [14]: Downregulation of REST protein expression in HEK293 cells transfected with wild type SCP1 at 10 uM incubated for 48 hrs with media replenishment for every 24 hrs by immunoblot analysis relative to control. Format: functional, Homo sapiens.
In experiment [15] the test system is HEK293. In words: Recovery of REST protein expression in HEK293 cells at 10 uM incubated for 2 days with media replenishment for every 24 hrs followed by compound washout and measured after 24 to 48 hrs by immunoblot analysis relative to control. In kind it is functional, Homo sapiens. Conditions: time 2 day.
The test system of experiment [16] is HEK293. In words: Recovery of REST protein expression in HEK293 cells at 10 uM incubated for 2 days with media replenishment for every 24 hrs followed by compound washout and measured after 3 days by immunoblot analysis relative to control. In kind it is functional, Homo sapiens. Conditions: time 2 day.
A short description of experiment [17]: Upregulation of ELAVL1 mRNA expression in HEK293 cells assessed as fold increase by qRT-PCR analysis. In kind it is functional, Homo sapiens. (In qPCR the cycle at which signal appears reflects the starting amount.)
The nature of experiment [18]: Upregulation of SCN2 mRNA expression in HEK293 cells assessed as fold increase by qRT-PCR analysis. Format: functional, Homo sapiens.
For experiment [19], the target named is T2, Tyrosine-protein phosphatase non-receptor type 11 (Homo sapiens) (UniProt Q06124).
T2 sequence (whole entry): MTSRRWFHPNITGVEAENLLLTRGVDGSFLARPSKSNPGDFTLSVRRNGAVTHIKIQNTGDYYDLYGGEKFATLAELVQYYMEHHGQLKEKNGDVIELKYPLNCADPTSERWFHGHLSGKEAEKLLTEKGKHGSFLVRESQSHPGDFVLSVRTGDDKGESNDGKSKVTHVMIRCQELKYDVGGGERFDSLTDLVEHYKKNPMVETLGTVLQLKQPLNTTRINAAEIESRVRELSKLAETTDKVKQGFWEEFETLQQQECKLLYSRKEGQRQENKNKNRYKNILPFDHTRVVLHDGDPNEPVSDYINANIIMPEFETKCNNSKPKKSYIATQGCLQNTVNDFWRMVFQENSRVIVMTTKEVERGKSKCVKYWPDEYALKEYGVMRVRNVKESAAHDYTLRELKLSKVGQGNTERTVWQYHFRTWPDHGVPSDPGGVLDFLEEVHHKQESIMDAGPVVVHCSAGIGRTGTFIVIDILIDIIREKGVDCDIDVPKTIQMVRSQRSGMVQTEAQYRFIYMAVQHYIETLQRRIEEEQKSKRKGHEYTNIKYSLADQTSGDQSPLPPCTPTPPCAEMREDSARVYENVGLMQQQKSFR
In words: Inhibition of SHP2 (unknown origin) at 25 to 30 uM. Conditions: dose 25-30 µM.

For experiment [20], the species on record is Homo sapiens. In words: Inhibition of PP1 (unknown origin) using pNPP as substrate incubated for 4 hrs by absorbance based analysis.

Chain of Dual specificity protein phosphatase 3 (Homo sapiens) (P51452 whole entry, looked up): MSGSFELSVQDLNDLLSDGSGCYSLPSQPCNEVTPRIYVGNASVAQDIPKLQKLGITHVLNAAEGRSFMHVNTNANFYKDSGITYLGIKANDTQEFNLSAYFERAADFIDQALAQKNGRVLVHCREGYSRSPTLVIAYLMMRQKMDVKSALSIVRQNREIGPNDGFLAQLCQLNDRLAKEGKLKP

Regarding `O=C(NCCCNS(=O)(=O)c1ccc(OC(F)(F)F)cc1)C1=Cc2ccccc2S1(=O)=O`, the outcome in experiment [1] and in experiment [6] was Active. The Activity was determined as 60% in [2]; 40% in experiment [12]; 75% in [13]; 80% in experiment [14]; 50% in experiment [15]; 77% in [16]. Besides, in [3], the inhibition (in general, how much of the control response was suppressed) was “Active”. Further, the inhibition entry in experiment [4], in experiment [7], in experiment [8], in [9], in experiment [19] and in experiment [20] was “inactive” in each case. Also, the outcome in experiment [5] was inactive. For the same molecule, in experiment [10], the inhibition was 50%. Moreover, the EC50 – broadly, the concentration at which the effect is half-maximal – in [11] is 1.5 µM. Further, the “fold change (FC)” value in experiment [17] and in experiment [18] was 2 throughout.
